Test results published in ChEMBL document CHEMBL4406807, “Discovery of 3,4,6-Trisubstituted Piperidine Derivatives as Orally Active, Low hERG Blocking Akt Inhibitors via Conformational Restriction and Structure-Based Design” (J Med Chem, 2019).

Tests used:
hERG (KCNH2) = hERG (KCNH2) (Homo sapiens, UniProt Q12809); experiment: Inhibition of ERG in human HEK293 cells at 3 uM at -80 mV holding potential by whole-cell patch clamp assay relative to control; format: cell-based; settings: HEK293 cells expressing ERG
Chain of hERG (KCNH2) (Q12809 whole entry): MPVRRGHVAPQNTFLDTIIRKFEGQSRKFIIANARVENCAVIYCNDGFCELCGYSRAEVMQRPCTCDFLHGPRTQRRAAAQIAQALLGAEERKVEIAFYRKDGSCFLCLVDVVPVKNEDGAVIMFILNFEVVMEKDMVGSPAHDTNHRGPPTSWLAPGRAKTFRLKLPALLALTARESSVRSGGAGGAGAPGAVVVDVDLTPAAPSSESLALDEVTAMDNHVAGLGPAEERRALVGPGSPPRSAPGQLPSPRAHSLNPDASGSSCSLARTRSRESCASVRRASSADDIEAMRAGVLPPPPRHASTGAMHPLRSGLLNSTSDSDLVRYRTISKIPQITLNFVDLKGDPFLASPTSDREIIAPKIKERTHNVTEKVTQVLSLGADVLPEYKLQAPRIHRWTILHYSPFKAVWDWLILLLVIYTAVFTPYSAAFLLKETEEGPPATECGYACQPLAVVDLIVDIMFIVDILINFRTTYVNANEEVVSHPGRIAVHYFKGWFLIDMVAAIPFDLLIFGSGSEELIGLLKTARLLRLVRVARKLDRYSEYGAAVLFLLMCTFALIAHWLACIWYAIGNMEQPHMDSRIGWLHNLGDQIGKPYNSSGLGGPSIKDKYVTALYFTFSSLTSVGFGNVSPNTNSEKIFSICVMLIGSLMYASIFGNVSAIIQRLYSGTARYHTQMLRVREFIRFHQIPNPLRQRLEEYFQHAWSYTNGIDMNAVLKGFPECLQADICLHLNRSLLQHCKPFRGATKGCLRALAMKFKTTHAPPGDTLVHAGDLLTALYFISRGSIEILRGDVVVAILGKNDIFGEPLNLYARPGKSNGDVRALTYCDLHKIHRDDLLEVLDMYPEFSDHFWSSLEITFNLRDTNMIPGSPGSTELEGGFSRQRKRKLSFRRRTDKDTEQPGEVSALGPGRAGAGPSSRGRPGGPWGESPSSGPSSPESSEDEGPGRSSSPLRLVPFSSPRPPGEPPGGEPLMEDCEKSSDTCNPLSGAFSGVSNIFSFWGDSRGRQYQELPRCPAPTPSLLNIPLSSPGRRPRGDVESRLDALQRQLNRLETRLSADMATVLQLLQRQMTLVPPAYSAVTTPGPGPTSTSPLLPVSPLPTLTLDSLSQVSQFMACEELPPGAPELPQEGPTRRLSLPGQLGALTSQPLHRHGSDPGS

[1] = Microsomal stability in dog liver microsomes assessed as compound remaining at 100 ug/ml in presence of NADPH measured at 1.5 hrs by LC/MS analysis; format: ADME, Canis lupus familiaris, Microsome; settings: read-out: Stability
[2] = Inhibition of recombinant His-tagged human PKA expressed in Escherichia coli using Ser/Thr 01 as substrate after 1 hr by Z-lyte assay
Protein kinase C (PKC) = experiment: Inhibition of PKC (unknown origin); format: protein assay, Homo sapiens
[3] = target: Ribosomal protein S6 kinase alpha-1 (Homo sapiens, UniProt Q15418); experiment: Inhibition of RSK1 (unknown origin) by mobility shift assay
[4] = Cmax in ICR mouse at 40 mg/kg, ig measured up to 48 hrs by LC-MS/MS analysis; format: ADME, organism-based; set-up: dose 40 mg/kg, route […]; settings: in vivo, po
[5] = Clearance in ICR mouse at 40 mg/kg, ig measured up to 48 hrs by LC-MS/MS analysis; format: ADME, organism-based; settings: in vivo, po
[6] = AUC (0 to infinity) in ICR mouse at 40 mg/kg, ig measured up to 48 hrs by LC-MS/MS analysis; format: ADME, organism-based; set-up: dose 40 mg/kg, time infinity, route […]; settings: in vivo, po
[7] = MRT (0 to t) in ICR mouse at 40 mg/kg, ig measured up to 48 hrs by LC-MS/MS analysis; format: ADME, organism-based; settings: in vivo, po
[8] = Protein binding in mouse plasma at 300 ng/ml after 8 hrs by equilibrium dialysis; format: ADME, cell-free; settings: read-out: PPB (converted)
[9] = Stability in mouse plasma at 100 ug/ml after 1 hr by LC/MS analysis; format: ADME, cell-free; settings: read-out: Stability
[10] = MRT (0 to infinity) in Sprague-Dawley rat at 40 mg/kg, ig measured up to 24 hrs by LC-MS/MS analysis; format: ADME, organism-based; settings: in vivo, po
[11] = Oral bioavailability in ICR mouse at 40 mg/kg measured up to 48 hrs by LC-MS/MS analysis; format: ADME, organism-based; settings: in vivo
SK-OV-3 [12] = experiment: Induction of apoptosis in human SKOV3 cells at 0.4 uM by FACS based flow cytometric analysis (reference value: 7.63%); format: functional
SK-OV-3 [13] = experiment: Induction of apoptosis in human SKOV3 cells at 2 uM by FACS based flow cytometric analysis (reference value: 7.63%); format: functional
SK-OV-3 [14] = experiment: Antitumor activity against human SKOV3 cells xenografted in BALB/c nude mouse assessed as tumor growth inhibition at 60 mg/kg, po administered once daily for 21 days relative to control; format: functional; settings: SK-OV-3, po, 504 h, read-out: TGI
[15] = Toxicity in BALB/c nude mouse xenografted with human SKOV3 cells assessed as reduction in mouse survival at 40 mg/kg, po BID for 21 days; format: organism-based; settings: in vivo, 504 h
[16] = Drug level in tumor of human SKOV3 cells xenografted in BALB/c nude mouse at 50 mg/kg administered for 7 consecutive days; format: ADME, organism-based, Neoplasm; settings: in vivo
[17] = target: Cystic fibrosis transmembrane conductance regulator (Homo sapiens, UniProt P13569); experiment: Inhibition of CFTR (unknown origin)
Chain of Cystic fibrosis transmembrane conductance regulator (P13569 whole entry): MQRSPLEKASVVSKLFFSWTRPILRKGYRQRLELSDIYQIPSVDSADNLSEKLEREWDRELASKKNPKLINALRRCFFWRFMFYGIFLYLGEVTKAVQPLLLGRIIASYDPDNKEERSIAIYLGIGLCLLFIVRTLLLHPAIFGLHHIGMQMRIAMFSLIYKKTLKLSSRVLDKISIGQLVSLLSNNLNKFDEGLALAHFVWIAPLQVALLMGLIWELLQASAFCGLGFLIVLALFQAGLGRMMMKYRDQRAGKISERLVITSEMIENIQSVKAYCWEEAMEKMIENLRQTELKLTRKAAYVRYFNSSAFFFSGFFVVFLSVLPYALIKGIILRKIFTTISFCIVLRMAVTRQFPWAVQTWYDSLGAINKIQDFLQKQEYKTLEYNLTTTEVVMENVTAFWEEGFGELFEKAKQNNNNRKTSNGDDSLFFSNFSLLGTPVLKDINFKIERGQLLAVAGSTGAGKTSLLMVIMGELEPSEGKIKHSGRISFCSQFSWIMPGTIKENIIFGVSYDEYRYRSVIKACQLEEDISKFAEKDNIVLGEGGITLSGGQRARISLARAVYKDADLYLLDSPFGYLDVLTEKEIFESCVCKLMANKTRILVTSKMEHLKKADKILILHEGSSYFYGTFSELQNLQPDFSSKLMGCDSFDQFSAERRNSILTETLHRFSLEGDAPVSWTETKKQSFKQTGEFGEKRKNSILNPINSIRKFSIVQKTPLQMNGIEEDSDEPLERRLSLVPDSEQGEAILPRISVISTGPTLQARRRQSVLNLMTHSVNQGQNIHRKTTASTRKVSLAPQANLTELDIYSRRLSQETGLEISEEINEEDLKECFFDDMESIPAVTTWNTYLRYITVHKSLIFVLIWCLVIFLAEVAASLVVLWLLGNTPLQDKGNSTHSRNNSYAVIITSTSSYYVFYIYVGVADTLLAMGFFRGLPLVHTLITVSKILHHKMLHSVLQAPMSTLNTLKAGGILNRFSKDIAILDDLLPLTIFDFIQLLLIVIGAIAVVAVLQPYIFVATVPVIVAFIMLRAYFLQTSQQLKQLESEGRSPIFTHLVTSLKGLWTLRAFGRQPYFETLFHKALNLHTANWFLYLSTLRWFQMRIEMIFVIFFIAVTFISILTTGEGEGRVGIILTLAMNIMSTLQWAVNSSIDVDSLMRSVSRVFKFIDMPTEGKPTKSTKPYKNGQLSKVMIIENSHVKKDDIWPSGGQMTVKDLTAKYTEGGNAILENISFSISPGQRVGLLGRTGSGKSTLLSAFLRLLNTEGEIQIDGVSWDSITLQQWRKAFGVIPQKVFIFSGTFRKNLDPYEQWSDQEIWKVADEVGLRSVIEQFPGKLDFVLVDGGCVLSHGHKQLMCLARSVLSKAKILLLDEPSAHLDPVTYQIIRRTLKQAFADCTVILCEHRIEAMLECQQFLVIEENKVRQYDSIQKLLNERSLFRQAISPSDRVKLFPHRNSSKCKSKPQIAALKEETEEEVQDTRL

[18] = target: ATP-sensitive inward rectifier potassium channel 1 (Homo sapiens, UniProt P48048); experiment: Inhibition of Kir1.1 (unknown origin) at 3 uM relative to control
Chain of ATP-sensitive inward rectifier potassium channel 1 (P48048 whole entry): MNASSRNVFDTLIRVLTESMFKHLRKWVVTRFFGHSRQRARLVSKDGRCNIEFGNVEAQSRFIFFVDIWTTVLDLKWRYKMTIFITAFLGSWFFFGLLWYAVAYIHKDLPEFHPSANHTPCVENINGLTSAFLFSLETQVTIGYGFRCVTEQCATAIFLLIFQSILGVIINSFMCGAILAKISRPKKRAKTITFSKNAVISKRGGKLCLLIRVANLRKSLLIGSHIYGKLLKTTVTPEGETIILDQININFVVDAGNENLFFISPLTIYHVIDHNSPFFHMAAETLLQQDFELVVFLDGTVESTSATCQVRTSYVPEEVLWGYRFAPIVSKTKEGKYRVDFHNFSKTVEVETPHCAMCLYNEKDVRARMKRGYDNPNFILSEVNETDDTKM

[19] = target: Potassium voltage-gated channel subfamily A member 10 (Homo sapiens, UniProt Q16322); experiment: Inhibition of Kv1.8 (unknown origin) at 3 uM relative to control
[20] = target: Potassium voltage-gated channel subfamily A member 5 (Homo sapiens, UniProt P22460); experiment: Inhibition of Kv1.5 (unknown origin) at 3 uM relative to control
[21] = target: Potassium/sodium hyperpolarization-activated cyclic nucleotide-gated channel 1 (Homo sapiens, UniProt O60741); experiment: Inhibition of HCN1 (unknown origin) at 3 uM relative to control
[22] = target: Potassium/sodium hyperpolarization-activated cyclic nucleotide-gated channel 3 (Homo sapiens, UniProt Q9P1Z3); experiment: Inhibition of HCN3 (unknown origin) at 3 uM relative to control
[23] = target: Potassium/sodium hyperpolarization-activated cyclic nucleotide-gated channel 4 (Homo sapiens, UniProt Q9Y3Q4); experiment: Inhibition of HCN4 (unknown origin) at 3 uM relative to control
Chain of Potassium/sodium hyperpolarization-activated cyclic nucleotide-gated channel 4 (Q9Y3Q4 whole entry): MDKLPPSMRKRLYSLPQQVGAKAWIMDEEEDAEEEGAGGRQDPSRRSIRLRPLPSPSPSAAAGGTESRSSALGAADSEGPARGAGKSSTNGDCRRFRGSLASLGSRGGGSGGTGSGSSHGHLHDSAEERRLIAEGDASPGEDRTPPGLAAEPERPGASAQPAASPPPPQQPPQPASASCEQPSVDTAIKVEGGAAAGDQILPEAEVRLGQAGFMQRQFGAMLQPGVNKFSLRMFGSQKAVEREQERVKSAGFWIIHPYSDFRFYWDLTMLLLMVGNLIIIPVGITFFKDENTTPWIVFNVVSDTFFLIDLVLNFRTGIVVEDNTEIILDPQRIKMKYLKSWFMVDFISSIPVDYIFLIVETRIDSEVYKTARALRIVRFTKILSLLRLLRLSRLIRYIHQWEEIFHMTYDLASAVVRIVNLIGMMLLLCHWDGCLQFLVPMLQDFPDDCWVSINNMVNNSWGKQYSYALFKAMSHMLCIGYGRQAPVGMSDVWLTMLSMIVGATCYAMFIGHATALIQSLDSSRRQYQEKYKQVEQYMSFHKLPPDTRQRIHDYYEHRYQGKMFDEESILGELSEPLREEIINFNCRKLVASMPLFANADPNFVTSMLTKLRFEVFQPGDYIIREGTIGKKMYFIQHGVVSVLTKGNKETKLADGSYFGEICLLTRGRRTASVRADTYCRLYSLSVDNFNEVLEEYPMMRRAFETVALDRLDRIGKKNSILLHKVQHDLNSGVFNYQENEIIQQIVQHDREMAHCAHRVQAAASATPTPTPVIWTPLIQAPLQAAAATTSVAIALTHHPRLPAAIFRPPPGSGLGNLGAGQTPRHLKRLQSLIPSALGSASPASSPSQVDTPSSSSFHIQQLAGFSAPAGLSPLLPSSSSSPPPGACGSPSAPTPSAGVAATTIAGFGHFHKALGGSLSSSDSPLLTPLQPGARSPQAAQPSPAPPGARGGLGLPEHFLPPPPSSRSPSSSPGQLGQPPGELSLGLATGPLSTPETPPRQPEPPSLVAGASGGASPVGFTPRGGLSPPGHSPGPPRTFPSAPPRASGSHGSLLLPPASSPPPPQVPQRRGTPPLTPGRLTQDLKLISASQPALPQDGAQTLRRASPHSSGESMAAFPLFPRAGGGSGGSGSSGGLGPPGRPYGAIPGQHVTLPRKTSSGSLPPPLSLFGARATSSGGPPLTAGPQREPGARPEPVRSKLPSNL

[24] = Toxicity in BALB/c nude mouse xenografted with human SKOV3 cells assessed as effect on body weight at 40 mg/kg, po BID for 21 days; format: organism-based; settings: in vivo, 504 h
[25] = Toxicity in BALB/c nude mouse xenografted with human SKOV3 cells assessed as effect on body weight at 60 to 80 mg/kg, po administered once daily for 21 days; format: organism-based; settings: in vivo, 504 h
[26] = target: T1, Serine/threonine-protein kinase Sgk1 (Homo sapiens, UniProt O00141); experiment: Inhibition of human SGK by mobility shift assay
T1 sequence (O00141 whole entry): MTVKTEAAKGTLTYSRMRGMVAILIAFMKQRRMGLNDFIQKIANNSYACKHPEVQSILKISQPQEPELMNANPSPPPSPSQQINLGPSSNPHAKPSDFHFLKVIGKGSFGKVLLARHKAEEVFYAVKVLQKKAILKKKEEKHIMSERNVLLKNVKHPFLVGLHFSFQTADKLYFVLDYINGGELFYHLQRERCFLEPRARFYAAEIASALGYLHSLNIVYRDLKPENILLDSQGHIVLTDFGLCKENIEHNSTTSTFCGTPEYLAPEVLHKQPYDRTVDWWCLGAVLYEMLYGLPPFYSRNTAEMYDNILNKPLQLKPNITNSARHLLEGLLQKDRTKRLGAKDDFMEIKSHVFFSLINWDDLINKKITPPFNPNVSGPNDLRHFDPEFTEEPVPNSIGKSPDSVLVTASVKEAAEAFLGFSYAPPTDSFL

[27] = target: RAC-alpha serine/threonine-protein kinase (Homo sapiens, UniProt P31749)
Chain of RAC-alpha serine/threonine-protein kinase (P31749 whole entry): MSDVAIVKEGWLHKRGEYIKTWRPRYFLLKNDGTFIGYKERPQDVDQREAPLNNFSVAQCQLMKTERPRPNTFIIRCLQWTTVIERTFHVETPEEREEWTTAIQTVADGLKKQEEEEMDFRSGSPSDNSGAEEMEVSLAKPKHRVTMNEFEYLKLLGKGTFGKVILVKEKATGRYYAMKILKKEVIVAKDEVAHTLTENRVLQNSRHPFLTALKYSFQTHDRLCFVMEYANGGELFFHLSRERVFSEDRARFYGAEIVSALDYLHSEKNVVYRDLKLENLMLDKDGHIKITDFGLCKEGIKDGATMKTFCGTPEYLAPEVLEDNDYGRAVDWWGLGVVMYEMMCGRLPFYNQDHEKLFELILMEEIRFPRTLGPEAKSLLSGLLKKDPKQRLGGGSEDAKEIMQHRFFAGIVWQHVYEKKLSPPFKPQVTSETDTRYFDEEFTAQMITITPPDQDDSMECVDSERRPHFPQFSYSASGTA
Description: Inhibition of human Akt1 expressed in Escherichia coli using STK Substrate 2-biotin as substrate incubated for 1 hr by HTRF assay

HCT-116 = experiment: cells; settings: Homo sapiens, HCT-116, 72 h

CNC(=O)C[C@@H]1C[C@@H](c2ccc(F)c(F)c2)[C@H](NC(=O)c2cc(-c3c(Cl)cnn3C)c(Cl)o2)CN1
inhibition at 3 µM (hERG (KCNH2)): 4%
remaining at 1.5 h, 100 ug/ml [1]: 96%
IC50 [2]: 0.3 nM
IC50 (Protein kinase C (PKC)): 94 nM
IC50 [3]: 131 nM
Cmax [4]: 3620 ng/mL
CL/F [5]: 31.7 mL/min/kg
AUC(0-inf) [6]: 21200 ng·h/mL
MRT last at 48 h [7]: 5.2 h
fraction unbound at 8 h, 300 ng/ml [8]: 0.07
remaining at 1 h, 100 ug/ml [9]: > 99%
MRT inf [10]: 11.4 h
bioavailability [11]: 48.4%
Activity (SK-OV-3 [12]): 39.88%
Activity (SK-OV-3 [13]): 64.22%
inhibition in vivo at 60 mg/kg (SK-OV-3 [14]): 79.2%
Activity [15]: Non-Toxic
Drug uptake [16]: 560 ng/mL
inhibition (INH) [17]: Not Active
inhibition (INH) [18]: Not Active
inhibition (INH) [19]: Not Active
inhibition (INH) [20]: Not Active
inhibition (INH) [21]: Not Active
inhibition (INH) [22]: Not Active
inhibition (INH) [23]: Not Active
Activity [24]: Non-Toxic
Activity [25]: Non-Toxic
IC50 [26]: 145 nM
IC50 [27]: 1.37 nM
IC50 (HCT-116): 1100 nM
